Results on 18 compounds are retold here after PubChem BioAssay (NCI).

Test systems include MALME-3M melanoma; NCI-H226 lung; NCI-H522 lung; OVCAR-3 ovarian; OVCAR-5 ovarian; OVCAR-8 ovarian; SK-MEL-28 melanoma; SNB-19 CNS; U251 CNS.
What all share (test): growth of human tumour cells (NCI), 48 h

Molecules are shown by their SMILES. Several values for one entry are separate records, joined by “and”; a condition that tells them apart may be missing. Equal values may be shown once.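 Following 48 hours of exposure in 96-well plates, responses at five concentrations were used to interpolate endpoints linearly. GI50 = concentration required for 50% inhibition of growth. At the TGI there is no net growth.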

In the case of `CC(=O)OCC1OC(n2c(=S)n(-c3ccccc3)c(=O)c3cc(Br)cc(Br)c32)C(OC(C)=O)C(OC(C)=O)C1OC(C)=O` (stereo not given), the TGI with MALME-3M melanoma was greater than 100 µM; in the assay with NCI-H226 lung, greater than 100 µM; in the assay on NCI-H522 lung it was > 100 µM and 84.7 µM; in the assay with OVCAR-3 ovarian it was greater than 100 µM; in the assay with OVCAR-5 ovarian, greater than 100 µM; in the assay on OVCAR-8 ovarian, greater than 100 µM. The TGI in the assay on SK-MEL-28 melanoma was greater than 100 µM; with SNB-19 CNS, 85.5 µM and > 100 µM; in the assay with U251 CNS it was greater than 100 µM. Moreover, the GI50 was > 100 µM and 28.6 µM in the assay with NCI-H522 lung; 47.4 µM and > 100 µM with OVCAR-3 ovarian; 28.5 µM and 71.1 µM in the assay with SNB-19 CNS; 20 µM and 91.9 µM with U251 CNS.

With `O=C(/C=C(\[O-])c1ccccc1)CCCCCCC(=O)/C=C(\[O-])c1ccccc1.O=C(/C=C(\[O-])c1ccccc1)CCCCCCC(=O)/C=C(\[O-])c1ccccc1.O=C(/C=C(\[O-])c1ccccc1)CCCCCCC(=O)/C=C(\[O-])c1ccccc1.[Nd+3].[Nd+3]`, the GI50 in the assay with MALME-3M melanoma, with NCI-H226 lung, in the assay with NCI-H522 lung, with OVCAR-3 ovarian, with OVCAR-5 ovarian and with OVCAR-8 ovarian was greater than 50 µM in each case. Moreover, the GI50 in the assay with SK-MEL-28 melanoma, in the assay with SNB-19 CNS and in the assay with U251 CNS was greater than 50 µM throughout. Moreover, the TGI in the assay with MALME-3M melanoma, in the assay with NCI-H226 lung, with NCI-H522 lung, with OVCAR-3 ovarian, in the assay on OVCAR-5 ovarian and in the assay on OVCAR-8 ovarian was greater than 50 µM each time. The TGI in the assay with SK-MEL-28 melanoma, with SNB-19 CNS and in the assay with U251 CNS was greater than 50 µM throughout.

Turning to `Nc1nc(=S)[nH]c(C(=O)Nc2nccs2)c1-c1ccccc1`, the TGI with MALME-3M melanoma, in the assay on NCI-H226 lung, in the assay with NCI-H522 lung, in the assay with OVCAR-3 ovarian, in the assay with OVCAR-5 ovarian and with OVCAR-8 ovarian was greater than 100 µM throughout. Moreover, the TGI in the assay with SK-MEL-28 melanoma, with SNB-19 CNS and with U251 CNS was greater than 100 µM throughout.

For `CN(C)c1ccc(O[Si](Oc2ccc(N(C)C)cc2)(Oc2ccc(N(C)C)cc2)Oc2ccc(N(C)C)cc2)cc1`, the TGI in the assay on MALME-3M melanoma, with NCI-H226 lung, with NCI-H522 lung, in the assay with OVCAR-3 ovarian, with OVCAR-5 ovarian and in the assay on OVCAR-8 ovarian was greater than 100 µM throughout. In addition, the TGI in the assay with SK-MEL-28 melanoma, in the assay with SNB-19 CNS and in the assay on U251 CNS was greater than 100 µM throughout.

With `Clc1ccc2c(NCCCN3CCN(c4nc(N5CCOCC5)nc5ccccc45)CC3)ccnc2c1`, the GI50 with MALME-3M melanoma was 1.9 µM; in the assay on NCI-H522 lung, 1.97 µM; with OVCAR-3 ovarian, 2.15 µM; in the assay with OVCAR-5 ovarian, 2.5 µM; with OVCAR-8 ovarian it was 1.98 µM; in the assay with SK-MEL-28 melanoma, 1.88 µM. Besides, in the assay on U251 CNS, the GI50 was 2.15 µM. In addition, the TGI in the assay on MALME-3M melanoma amounted to 3.49 µM; in the assay on NCI-H522 lung it was 3.73 µM; in the assay on OVCAR-3 ovarian, 4.77 µM; in the assay on OVCAR-5 ovarian, 6.34 µM; with OVCAR-8 ovarian, 4.47 µM; with SK-MEL-28 melanoma it was 3.37 µM. Besides, the TGI in the assay with U251 CNS stood at 5.15 µM.

On to `COC(=O)c1sc(=NC(=S)N2CCCCC2)sc1C(=O)OC`, for which the TGI with MALME-3M melanoma is greater than 100 µM; with NCI-H226 lung, greater than 100 µM; in the assay on OVCAR-3 ovarian, 34.2 µM; in the assay on OVCAR-8 ovarian it was greater than 100 µM; in the assay on SK-MEL-28 melanoma, greater than 100 µM; in the assay with SNB-19 CNS, greater than 100 µM. For the same compound, in the assay on U251 CNS, the TGI is greater than 100 µM.

`NNC(=O)N/N=C1\CN(c2ccc(Cl)cc2Cl)C(=O)C(=O)C1c1nc2ccccc2o1` (stereo not given): the TGI with MALME-3M melanoma, in the assay on NCI-H226 lung, in the assay with NCI-H522 lung, in the assay with OVCAR-3 ovarian, in the assay with OVCAR-5 ovarian and with OVCAR-8 ovarian was greater than 100 µM in each case. Further, the TGI in the assay with SK-MEL-28 melanoma, in the assay on SNB-19 CNS and with U251 CNS was greater than 100 µM in each case.

On to `COc1ccc(C(=O)O/N=C2/CCCCC2CN(C)C)cc1` (stereo not given), for which the TGI in the assay with MALME-3M melanoma, in the assay with NCI-H226 lung, with NCI-H522 lung, with OVCAR-3 ovarian, in the assay on OVCAR-5 ovarian and with OVCAR-8 ovarian was greater than 100 µM throughout. Moreover, the TGI in the assay on SK-MEL-28 melanoma and in the assay on U251 CNS was greater than 100 µM throughout.

Turning to `CC1CC(C)C(C(O)CC2CC(=O)N(c3ccccc3)C(=O)C2)C(O)C1` (stereo not given), the TGI in the assay on MALME-3M melanoma, with NCI-H226 lung, in the assay with NCI-H522 lung, in the assay with OVCAR-3 ovarian, in the assay with OVCAR-5 ovarian and in the assay on OVCAR-8 ovarian was greater than 100 µM in each case. For the same compound, the TGI in the assay with SK-MEL-28 melanoma, in the assay with SNB-19 CNS and in the assay with U251 CNS was greater than 100 µM each time.

As to `O=C(CC1=Nc2nnc(-c3nnc4n3C(=O)C(CC(=O)C3CC3)=N4)n2C1=O)C1CC1`, the TGI in the assay on MALME-3M melanoma, in the assay on NCI-H226 lung, in the assay on NCI-H522 lung, in the assay on OVCAR-3 ovarian, with OVCAR-5 ovarian and in the assay on SK-MEL-28 melanoma was greater than 100 µM throughout. In addition, the TGI in the assay on SNB-19 CNS and with U251 CNS was greater than 100 µM throughout.

Regarding `Cc1ccc(C2=C(Cl)C(=O)C(c3ccc(C)cc3)=C(Cl)C2=O)cc1`, the TGI with MALME-3M melanoma, with NCI-H226 lung, in the assay with NCI-H522 lung, in the assay on OVCAR-3 ovarian, with OVCAR-5 ovarian and in the assay with OVCAR-8 ovarian was greater than 100 µM in each case. The TGI in the assay with SK-MEL-28 melanoma, in the assay with SNB-19 CNS and in the assay with U251 CNS was greater than 100 µM each time.

`c1ccc2c3c([nH]c2c1)C1C2CCCCN2C(c2ccncc2)N1CC3` (stereo not given): the TGI in the assay on MALME-3M melanoma, with NCI-H522 lung, with OVCAR-3 ovarian, in the assay on OVCAR-5 ovarian, in the assay with OVCAR-8 ovarian and in the assay with SK-MEL-28 melanoma was greater than 100 µM each time. Besides, the TGI is 65.3 µM with SNB-19 CNS and greater than 100 µM in the assay with U251 CNS.

For `OCC(O)C(O)C(O)C(O)c1nn[nH]n1` (stereo not given), the TGI in the assay with MALME-3M melanoma, in the assay with NCI-H226 lung, with NCI-H522 lung, in the assay on OVCAR-3 ovarian, in the assay with OVCAR-5 ovarian and in the assay with OVCAR-8 ovarian was greater than 100 µM in each case. This compound gave a TGI in the assay with U251 CNS greater than 100 µM.

As for `Nc1ccc(C(=O)/C=C/c2ccccc2O)cc1`, the TGI in the assay with MALME-3M melanoma, in the assay with NCI-H226 lung, with NCI-H522 lung, in the assay on OVCAR-3 ovarian, in the assay with OVCAR-5 ovarian and in the assay with OVCAR-8 ovarian was greater than 100 µM in each case. The TGI with SK-MEL-28 melanoma, in the assay on SNB-19 CNS and in the assay with U251 CNS was greater than 100 µM in each case.

Take `COCC1N=C(c2cc(OC)c(OC)c(OC)c2-c2cc3c(cc2[C@H](C)O)OCO3)O[C@H]1c1ccccc1` (stereo not given in full): the TGI in the assay with NCI-H226 lung, in the assay with OVCAR-3 ovarian, with OVCAR-8 ovarian, in the assay with SK-MEL-28 melanoma, in the assay on SNB-19 CNS and in the assay with U251 CNS was greater than 100 µM in each case.

For `[Cl-].[Gd+3].[O-]/N=C(\c1ccccc1)c1ccccn1.[O-]/N=C(\c1ccccc1)c1ccccn1.[O-]/N=C(\c1ccccc1)c1ccccn1`, the GI50 in the assay on MALME-3M melanoma is 95.8 µM; with NCI-H226 lung it was 40.4 µM; in the assay with NCI-H522 lung, 40.4 µM; with OVCAR-3 ovarian, 21.3 µM; in the assay on OVCAR-5 ovarian, 67.7 µM; with OVCAR-8 ovarian, 34.3 µM. Moreover, the GI50 is 61.6 µM in the assay on SK-MEL-28 melanoma, 93.2 µM with SNB-19 CNS and 68.9 µM with U251 CNS. Also, the TGI is greater than 100 µM in the assay with MALME-3M melanoma; greater than 100 µM in the assay on NCI-H226 lung; greater than 100 µM in the assay with NCI-H522 lung; 79.5 µM with OVCAR-3 ovarian; greater than 100 µM in the assay on OVCAR-5 ovarian; greater than 100 µM in the assay on OVCAR-8 ovarian. In addition, the TGI in the assay with SK-MEL-28 melanoma, in the assay with SNB-19 CNS and in the assay on U251 CNS was greater than 100 µM throughout.

Consider `CCCCCCCCCCCCCCC(C)CCC(=O)O` (stereo not given), for which the TGI in the assay on MALME-3M melanoma, in the assay with NCI-H226 lung, in the assay with OVCAR-3 ovarian, in the assay with OVCAR-5 ovarian, in the assay on OVCAR-8 ovarian and in the assay with SK-MEL-28 melanoma was greater than 100 µM each time. For the same compound, the TGI with SNB-19 CNS and with U251 CNS was greater than 100 µM in each case.

`CC(=O)[O-].[Mn+3].[O-]c1ccc(Cl)cc1C=NCCN=Cc1cc(Cl)ccc1[O-]`: the GI50 in the assay on MALME-3M melanoma was 34.7 µM; with NCI-H226 lung, greater than 100 µM; in the assay on NCI-H522 lung, greater than 100 µM; in the assay on OVCAR-3 ovarian, 37.6 µM; in the assay with OVCAR-8 ovarian, greater than 100 µM; in the assay on SK-MEL-28 melanoma it was greater than 100 µM. The GI50 in the assay with SNB-19 CNS and in the assay on U251 CNS was greater than 100 µM in each case. The TGI with MALME-3M melanoma, in the assay with NCI-H226 lung, in the assay on NCI-H522 lung, in the assay on OVCAR-3 ovarian, with OVCAR-8 ovarian and with SK-MEL-28 melanoma was greater than 100 µM in each case. Further, the TGI in the assay with SNB-19 CNS and in the assay with U251 CNS was greater than 100 µM each time.
